The assay deals with T1, MCHR1 I265(45.52)A (Homo sapiens, UniProt Q99705, I196A).
T1 construct: expressed in transfected cells; host or cells: HEK293
As to the kind of experiment: GloSensor cAMP assay, MCHR1 I265A. Type of assay: cell-based. Conditions: HEK293, mean ± S.E.M., n = 3 in triplicate. The text has this: The gene sequences encoding human MCHR1 (residues 70‒405) and MCHR2 (residues 1‒331, with L256^6.40Y mutation) were subcloned into pFastBac vector (Invitrogen) with an N-terminal haemagglutinin signal peptide (HA) and a thermostabilized BRIL fusion, followed by a C-terminal 15-amino acid linker, a LgBiT subunit and two MBPs to facilitate receptor expression and stability. The Gαi construct was designed with dominant-negative mutations S47N, G203A, A326S, and E245A to decrease the affinity of nucleotide-binding and stable Gαβγ complex. The mini-Gαq construct was designed with the C-terminal α-helix (αH5) of Gαq, which is critical for G protein coupling selectivity. The core of the construct, known as the Ras domain, is derived from Gαs. This design choice was made to enable the binding of the nanobody Nb35, which stabilizes the complex for cryo-EM analysis. […] Rat Gβ1 was constructed with a N-terminal 16× His-tag for purification and a C-terminal HiBiT to form a NanoBiT with LgBiT. […] The wild-type and mutants of MCHR1 and MCHR2 were constructed into the pcDNA6.0 vector […] for functional assays.
GloSensor cAMP assay was used to detect the downstream Gαi signal of MCHR1 using GloSensor cAMP Reagent (Promega).
A general note: Changes in cAMP serve as a functional read-out for many G protein-coupled receptors.

SMILES strings stand for the structures.

T1 sequence (Q99705 whole entry I196A): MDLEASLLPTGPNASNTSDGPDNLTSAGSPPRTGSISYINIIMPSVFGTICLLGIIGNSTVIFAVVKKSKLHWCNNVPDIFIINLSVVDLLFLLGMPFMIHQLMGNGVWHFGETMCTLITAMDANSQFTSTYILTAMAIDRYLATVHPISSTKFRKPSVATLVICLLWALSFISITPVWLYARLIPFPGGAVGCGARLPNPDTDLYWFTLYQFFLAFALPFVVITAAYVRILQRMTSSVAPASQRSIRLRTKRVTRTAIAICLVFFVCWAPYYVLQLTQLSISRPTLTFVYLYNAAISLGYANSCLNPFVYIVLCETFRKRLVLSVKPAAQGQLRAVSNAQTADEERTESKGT

Broadly, the Emax is the greatest response seen or fitted, relative to the assay's reference. As for `CSCC[C@@H]1NC(=O)[C@@H](NC(=O)[C@H](CCCNC(=N)N)NC(=O)[C@H](CC(C)C)NC(=O)[C@H](CCSC)NC(=O)[C@H](CC(=O)O)NC(=O)[C@H](Cc2ccccc2)NC(=O)[C@@H](N)CC(=O)O)CSSC[C@@H](C(=O)N[C@@H](Cc2c[nH]c3ccccc23)C(=O)N[C@@H](CCC(N)=O)C(=O)N[C@H](C(=O)O)C(C)C)NC(=O)[C@@H]2CCCN2C(=O)[C@H](CCCNC(=N)N)NC(=O)[C@H](Cc2ccc(O)cc2)NC(=O)[C@H](C(C)C)NC(=O)[C@H](CCCNC(=N)N)NC(=O)CNC(=O)[C@H](CC(C)C)NC1=O` [MCH, Melanin-concentrating hormone], the Emax turned out to be 88 ± 3%.

Values taken from PMC11074101 (Cell Discovery, 2024).
